Data taken from patent US20160289449A1, “PROTEIN-BASED BIOPLASTICS AND METHODS OF USE” (University of Georgia Research Foundation, Inc., priority 2015, published 2016).

Assays:
bacteria = details: cited from earlier work
[1] = tested on: Gram (+) specie Bacillius subtilis; test: Drug elution and zone of inhibition study (disk susceptibility, M02-A11); type: cell-based, Bacillus subtilis
Protocol: (§1) After preparation, the samples were then cut into disk-sized plastics that were applied to the surface of Mueller-Hinton agar dishes that had been already inoculated with either Gram (+) specie Bacillius subtilis or the Gram (−) specie Escherichia coli at a concentration of 1-5×10^8 cells/mL. After application, the plates were then incubated for five days 30° C., during which the zones of inhibition were measured every 24 hours to determine the change of diameter of the inhibition zone size over time. Samples were run in triplicate (n=3) for each plastic type-additive combination (as well as the LDPE plastic control samples) in order to ensure precision.
(§2) To compare the ability of plastics to elute drug and to determine the effect of the addition of LDPE into plastics, statistical analyses were performed by fitting a regression model.

[2] = tested on: Gram (−) specie Escherichia coli; test: as above; type: cell-based
Protocol: as §1, §2

[3] = plastics with 15% of the additive, range over plastic types
[4] = plastics with the additive imbedded

Question: Which “concentration required for bacteriocidial properties” value (bacteria) does the source give for `OCC(O)CO` [glycerol] here?
Answer: Its value is “at least 28%”.

Question: Which “zone of inhibition at decreased amount of food preservative (in words)” value ([1]; 10% and 5% additive in the plastic) does the source give for `O=C([O-])c1ccccc1.[Na+]` [sodium benzoate] here?
Answer: The value was “unable to produce a zone of inhibition”.

Question: With `O=NO` [sodium nitrite] as the compound, how does the “inhibition zone after 5 days” value [1, 3] read?
Answer: The value was 0 mm.

Question: And the “zones of inhibition on inoculated petri dishes (in words)” value [1, 4]?
Answer: Its value is “did not generate any zones of inhibition”.

Question: And the “inhibition zone after 5 days” value [2, 3]?
Answer: Its value is 0 mm.

Question: What about the “zones of inhibition on inoculated petri dishes (in words)” value [2, 4] of the same compound?
Answer: Its value is “did not generate any zones of inhibition”.
